Data set [1] is described as follows: excess molar enthalpy (molar enthalpy of mixing); xn = mol fraction of the nth substance listed. Conditions: 1850 K, 101 kPa, Liquid, Knudsen.
The nature of data set [2]: xn = mol fraction of the nth substance listed. Conditions: 1850 K, 101 kPa, Liquid, Knudsen.

Numbers after ± are expanded uncertainties.

The text below walks through data of the NIST ThermoML archive (doi:10.1016/j.tca.2012.02.012).

As to `[Pd]` [palladium] + [Fe], in data set [1] (x2 = 0.5), the excess molar enthalpy was -5.999 ± 0.0598 kcal/mol. Also, the “excess molar Gibbs energy” value in data set [2] (x2 = 0.5) was -1.7232 ± 0.000239 kcal/mol.
For the molecule `[Fe]` [iron] + [Au], in data set [1] (x1 = 0.5), the excess molar enthalpy amounted to 1.76 ± 0.0179 kcal/mol. The “excess molar Gibbs energy” value in data set [2] (x1 = 0.5) is -0.1819 ± 0.000239 kcal/mol.
